*1 amine or outer side, *2 acyl side, *3 side chain or, on linkers, in order; H or OH if unused. Where a SMILES comes first, the peptide text is derived from it. Side-chain parts run from the residue outwards. [ ]: non-standard residue; d: D form. The star is where a group is joined. C20 diacid = O=C(O)CCCCCCCCCCCCCCCCCCC(=O)*; γGlu = O=C(O)[C@H](CCC(=O)[*:2])N[*:1]; εLys = N[C@@H](CCCCN[*:1])C(=O)[*:2]; Aib = CC(C)(N)C(=O)O
Experiments:
Assay in all cases: Receptor activation: cAMP production by CRE-luciferase reporter in stably transfected BHK cells
Type in all cases: cell-based
Settings in all cases: compared to the native ligand for the receptor
hGLP-1 Receptor = molecular target: T1, hGLP-1 Receptor (Homo sapiens, UniProt P43220)
T1 construct: expressed in transfected cells; host or cells: baby hamster kidney (BHK) cells, stably transfected, with CRE-firefly luciferase reporter
T1 sequence (P43220 24-463): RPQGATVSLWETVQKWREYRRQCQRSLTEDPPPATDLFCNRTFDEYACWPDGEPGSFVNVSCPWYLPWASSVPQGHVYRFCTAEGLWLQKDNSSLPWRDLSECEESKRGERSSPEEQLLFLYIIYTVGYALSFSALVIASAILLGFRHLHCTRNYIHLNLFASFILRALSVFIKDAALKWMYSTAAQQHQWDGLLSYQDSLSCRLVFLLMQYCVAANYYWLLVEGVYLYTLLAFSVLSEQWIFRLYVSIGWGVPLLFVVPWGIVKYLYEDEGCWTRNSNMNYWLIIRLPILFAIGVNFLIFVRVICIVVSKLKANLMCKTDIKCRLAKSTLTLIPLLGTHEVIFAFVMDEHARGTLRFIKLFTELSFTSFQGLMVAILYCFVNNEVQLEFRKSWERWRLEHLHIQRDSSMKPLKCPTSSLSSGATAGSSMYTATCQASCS
Method: (§1) Cyclic AMP (cAMP) production was assessed as a proxy for receptor activation using stably transfected baby hamster kidney (BHK) cell lines expressing the DNA for one individual receptor (GLP-1R, GIPR, GcgR; human- or mouse-specific sequence) and the DNA for the firefly luciferase reporter gene linked to the cAMP response element (CRE). The cells were kept in continuous culture at 37 °C and 5% CO2 in Dulbecco's Modified Eagle Medium (DMEM) supplemented with 10% heat-inactivated fetal bovine serum (HI-FBS), 300 μg/mL hygromycin, and 500 μg/mL G418; for cell lines expressing GIPR, the G418 concentration was lowered to 400 μg/mL. Cells were plated in a 96-well poly-D-lysine-coated plate at 5,000 cells per well in growth media and incubated overnight at 37 °C with 5% CO2. After the overnight incubation, the media was removed, the plate was washed once in Dulbecco's phosphase-buffered saline (DPBS), and 50 μL of assay buffer (DMEM without phenol red, 10 mM HEPES, 1x Glutamax, 1% ovalbumin, 0.1% Pluronic F-68) was added to each well. […] Aliquots of the dilution curves were added to the cell plate in a volume of 50 μL per well resulting in final assay concentrations ranging from 1 × 10^−14 to 1 × 10^−7 M. The assay plate was incubated for 3 h at 37 °C and 5% CO2. After the incubation, the assay plate was washed once with DPBS. A 100 μL aliquot of DPBS was added to each well followed by 100 μL of steadylite plus reagent (PerkinElmer). The assay plate was covered to protect reagent from light, shaken at 250 rpm at room temperature for 30 min, and read in a microtiter plate reader. EC50 values were calculated using Prism software (GraphPad) with the nonlinear regression log(agonist) vs. response. A minimum of two replicates were measured for each sample.

hGIP Receptor = molecular target: T2, hGIP Receptor (Homo sapiens, UniProt P48546)
T2 construct: expressed in transfected cells; host or cells: baby hamster kidney (BHK) cells, stably transfected, with CRE-firefly luciferase reporter
T2 sequence (P48546 22-466): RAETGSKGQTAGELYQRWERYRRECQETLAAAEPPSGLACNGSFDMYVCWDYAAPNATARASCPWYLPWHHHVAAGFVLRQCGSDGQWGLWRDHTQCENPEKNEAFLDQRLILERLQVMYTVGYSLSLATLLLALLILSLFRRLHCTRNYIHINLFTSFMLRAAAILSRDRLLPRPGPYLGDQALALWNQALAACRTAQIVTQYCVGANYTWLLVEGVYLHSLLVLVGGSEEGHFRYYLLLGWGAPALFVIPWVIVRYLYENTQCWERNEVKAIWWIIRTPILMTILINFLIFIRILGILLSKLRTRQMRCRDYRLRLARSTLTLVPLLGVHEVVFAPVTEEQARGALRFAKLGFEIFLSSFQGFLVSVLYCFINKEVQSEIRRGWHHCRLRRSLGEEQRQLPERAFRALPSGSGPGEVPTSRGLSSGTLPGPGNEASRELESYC
Method: as §1

hGcg Receptor = molecular target: T3, hGcg Receptor (Homo sapiens, UniProt P47871)
T3 construct: expressed in transfected cells; host or cells: baby hamster kidney (BHK) cells, stably transfected, with CRE-firefly luciferase reporter
T3 sequence (P47871 26-477): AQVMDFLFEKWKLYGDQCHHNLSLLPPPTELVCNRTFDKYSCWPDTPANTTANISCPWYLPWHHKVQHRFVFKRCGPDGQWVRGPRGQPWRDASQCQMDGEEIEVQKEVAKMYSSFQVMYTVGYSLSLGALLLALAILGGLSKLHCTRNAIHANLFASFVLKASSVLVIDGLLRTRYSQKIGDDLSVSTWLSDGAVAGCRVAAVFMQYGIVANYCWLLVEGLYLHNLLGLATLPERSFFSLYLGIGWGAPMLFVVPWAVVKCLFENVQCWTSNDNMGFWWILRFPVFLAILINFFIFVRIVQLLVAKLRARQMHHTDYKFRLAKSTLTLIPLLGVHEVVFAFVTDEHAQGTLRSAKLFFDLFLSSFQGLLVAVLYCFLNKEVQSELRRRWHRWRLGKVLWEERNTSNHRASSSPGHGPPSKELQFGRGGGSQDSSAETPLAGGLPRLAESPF
Method: as §1

Structure (SMILES) | hGLP-1 Receptor Relative Potency % (hGLP-1 Receptor) [%] | hGIP Receptor Relative Potency % (hGIP Receptor) [%] | hGcg Receptor Relative Potency % (hGcg Receptor) [%]
CC[C@H](C)[C@H](NC(=O)[C@H](CO)NC(=O)[C@H](Cc1ccc(O)cc1)NC(=O)[C@H](CC(=O)O)NC(=O)[C@H](CO)NC(=O)[C@@H](NC(=O)[C@H](Cc1ccccc1)NC(=O)[C@@H](NC(=O)CNC(=O)[C@H](Cc1c[nH]cn1)NC(=O)C(C)(C)NC(=O)[C@@H](N)Cc1c[nH]cn1)[C@@H](C)O)[C@@H](C)O)C(=O)N[C@@H](Cc1ccc(O)cc1)C(=O)N[C@@H](CC(C)C)C(=O)N[C@@H](CCC(=O)O)C(=O)N[C@@H](CCCCNC(=O)[C@@H](N)CCCCNC(=O)[C@@H](N)CCCCNC(=O)CC[C@H](NC(=O)CCCCCCCCCCCCCCCCCCC(=O)O)C(=O)O)C(=O)N[C@@H](CCCCN)C(=O)N[C@@H](C)C(=O)N[C@@H](C)C(=O)NC(C)(C)C(=O)N[C@@H](CCC(=O)O)C(=O)N[C@@H](Cc1ccccc1)C(=O)N[C@H](C(=O)N[C@@H](CCC(N)=O)C(=O)N[C@@H](Cc1c[nH]c2ccccc12)C(=O)N[C@@H](CC(C)C)C(=O)N[C@@H](CC(C)C)C(=O)N[C@@H](CCC(=O)O)C(=O)NCC(=O)NCC(=O)N1CCC[C@H]1C(=O)N[C@@H](CO)C(=O)N[C@@H](CO)C(=O)NCC(=O)N[C@@H](C)C(=O)N1CCC[C@H]1C(=O)N1CCC[C@H]1C(=O)N1CCC[C@H]1C(=O)N[C@@H](CO)C(N)=O)C(C)C [Compound 14] (H-H[Aib]HGTFTSDYSIYLEK([εLys-εLys-γGlu-C20 diacid])KAA[Aib]EFVQWLLEGGPSSGAPPPS-NH2) | 211 | 142 | 69
CC[C@H](C)[C@H](NC(=O)[C@H](CO)NC(=O)[C@H](Cc1ccc(O)cc1)NC(=O)[C@H](CC(=O)O)NC(=O)[C@H](CO)NC(=O)[C@@H](NC(=O)[C@H](Cc1ccccc1)NC(=O)[C@@H](NC(=O)CNC(=O)[C@H](CCC(N)=O)NC(=O)C(C)(C)NC(=O)[C@@H](N)Cc1ccc(O)cc1)[C@@H](C)O)[C@@H](C)O)C(=O)N[C@@H](Cc1ccc(O)cc1)C(=O)N[C@@H](CC(C)C)C(=O)N[C@@H](CC(=O)O)C(=O)N[C@@H](CCCCN)C(=O)N[C@@H](CCC(N)=O)C(=O)N[C@@H](C)C(=O)N[C@@H](C)C(=O)NC(C)(C)C(=O)N[C@@H](CCC(=O)O)C(=O)N[C@@H](Cc1ccccc1)C(=O)N[C@H](C(=O)N[C@@H](CC(N)=O)C(=O)N[C@@H](Cc1c[nH]c2ccccc12)C(=O)N[C@@H](CC(C)C)C(=O)N[C@@H](CC(C)C)C(=O)N[C@@H](C)C(=O)NCC(=O)NCC(=O)N1CCC[C@H]1C(=O)N[C@@H](CO)C(=O)N[C@@H](CO)C(=O)NCC(=O)N[C@@H](C)C(=O)N1CCC[C@H]1C(=O)N1CCC[C@H]1C(=O)N1CCC[C@H]1C(=O)N[C@@H](CO)C(=O)N[C@@H](CCCCNC(=O)COCCOCCNC(=O)COCCOCCNC(=O)CC[C@H](NC(=O)CCCCCCCCCCCCCCCCC(=O)O)C(=O)O)C(N)=O)C(C)C [Compound 6] | 59 | 23 | 1
CC[C@H](C)[C@H](NC(=O)[C@H](CO)NC(=O)[C@H](Cc1ccc(O)cc1)NC(=O)[C@H](CC(=O)O)NC(=O)[C@H](CO)NC(=O)[C@@H](NC(=O)[C@H](Cc1ccccc1)NC(=O)[C@@H](NC(=O)CNC(=O)[C@H](CCC(N)=O)NC(=O)C(C)(C)NC(=O)[C@@H](N)Cc1c[nH]cn1)[C@@H](C)O)[C@@H](C)O)C(=O)N[C@@H](Cc1ccc(O)cc1)C(=O)N[C@@H](CC(C)C)C(=O)N[C@@H](CCC(=O)O)C(=O)N[C@@H](CCCCNC(=O)[C@@H](N)CCCCNC(=O)[C@@H](N)CCCCNC(=O)CC[C@H](NC(=O)CCCCCCCCCCCCCCCCCCC(=O)O)C(=O)O)C(=O)N[C@@H](CCC(N)=O)C(=O)N[C@@H](C)C(=O)N[C@@H](C)C(=O)NC(C)(C)C(=O)N[C@@H](CCC(=O)O)C(=O)N[C@@H](Cc1ccccc1)C(=O)N[C@H](C(=O)N[C@@H](CCC(N)=O)C(=O)N[C@@H](Cc1c[nH]c2ccccc12)C(=O)N[C@@H](CC(C)C)C(=O)N[C@@H](CC(C)C)C(=O)N[C@@H](CCC(=O)O)C(=O)NCC(=O)NCC(=O)N1CCC[C@H]1C(=O)N[C@@H](CO)C(=O)N[C@@H](CO)C(=O)NCC(=O)N[C@@H](C)C(=O)N1CCC[C@H]1C(=O)N1CCC[C@H]1C(=O)N1CCC[C@H]1C(=O)N[C@@H](CO)C(N)=O)C(C)C [Compound 12] (H-H[Aib]QGTFTSDYSIYLEK([εLys-εLys-γGlu-C20 diacid])QAA[Aib]EFVQWLLEGGPSSGAPPPS-NH2) | 410 | 19 | 3
CC[C@H](C)[C@H](NC(=O)[C@H](CO)NC(=O)[C@H](Cc1ccc(O)cc1)NC(=O)[C@H](CC(=O)O)NC(=O)[C@H](CO)NC(=O)[C@@H](NC(=O)[C@H](Cc1ccccc1)NC(=O)[C@@H](NC(=O)CNC(=O)[C@H](Cc1c[nH]cn1)NC(=O)C(C)(C)NC(=O)[C@@H](N)Cc1ccc(O)cc1)[C@@H](C)O)[C@@H](C)O)C(=O)N[C@@H](Cc1ccc(O)cc1)C(=O)N[C@@H](CC(C)C)C(=O)N[C@@H](CCC(=O)O)C(=O)N[C@@H](CCCCNC(=O)[C@@H](N)CCCCNC(=O)[C@@H](N)CCCCNC(=O)CC[C@H](NC(=O)CCCCCCCCCCCCCCCCCCC(=O)O)C(=O)O)C(=O)N[C@@H](CCC(N)=O)C(=O)N[C@@H](C)C(=O)N[C@@H](C)C(=O)NC(C)(C)C(=O)N[C@@H](CCC(=O)O)C(=O)N[C@@H](Cc1ccccc1)C(=O)N[C@H](C(=O)N[C@@H](CCC(N)=O)C(=O)N[C@@H](Cc1c[nH]c2ccccc12)C(=O)N[C@@H](CC(C)C)C(=O)N[C@@H](CC(C)C)C(=O)N[C@@H](CCC(=O)O)C(=O)NCC(=O)NCC(=O)N1CCC[C@H]1C(=O)N[C@@H](CO)C(=O)N[C@@H](CO)C(=O)NCC(=O)N[C@@H](C)C(=O)N1CCC[C@H]1C(=O)N1CCC[C@H]1C(=O)N1CCC[C@H]1C(=O)N[C@@H](CO)C(N)=O)C(C)C [Compound 11] (H-Y[Aib]HGTFTSDYSIYLEK([εLys-εLys-γGlu-C20 diacid])QAA[Aib]EFVQWLLEGGPSSGAPPPS-NH2) | 7 | 147 | 13
CCCCCCCCCCCCCCCC(=O)NCCCC[C@H](NC(=O)[C@H](CO)NC(=O)[C@@H]1CCCN1C(=O)[C@@H]1CCCN1C(=O)[C@@H]1CCCN1C(=O)[C@H](C)NC(=O)CNC(=O)[C@H](CO)NC(=O)[C@H](CO)NC(=O)[C@@H]1CCCN1C(=O)CNC(=O)CNC(=O)[C@H](C)NC(=O)[C@H](CC(C)C)NC(=O)[C@H](CC(C)C)NC(=O)[C@H](Cc1c[nH]c2ccccc12)NC(=O)[C@H](CC(N)=O)NC(=O)[C@@H](NC(=O)[C@H](Cc1ccccc1)NC(=O)[C@H](CCC(=O)O)NC(=O)C(C)(C)NC(=O)[C@H](C)NC(=O)[C@H](C)NC(=O)[C@H](CCC(N)=O)NC(=O)[C@H](CCCCN)NC(=O)[C@H](CC(=O)O)NC(=O)[C@H](CC(C)C)NC(=O)[C@H](Cc1ccc(O)cc1)NC(=O)[C@@H](NC(=O)[C@H](CO)NC(=O)[C@H](Cc1ccc(O)cc1)NC(=O)[C@H](CC(=O)O)NC(=O)[C@H](CO)NC(=O)[C@@H](NC(=O)[C@H](Cc1ccccc1)NC(=O)[C@@H](NC(=O)CNC(=O)[C@H](CCC(N)=O)NC(=O)C(C)(C)NC(=O)[C@@H](N)Cc1ccc(O)cc1)[C@@H](C)O)[C@@H](C)O)[C@@H](C)CC)C(C)C)C(N)=O [Compound 5] | 199 | 173 | 33

Source: article PMC9305623, “Next generation GLP-1/GIP/glucagon triple agonists normalize body weight in obese mice” (Molecular Metabolism, 2022)
